Assays:
HEK-293 cells = assay: HEK-293 cytotoxicity detection (CellTiter-Glo); assay type: cell-based; conditions: Homo sapiens, 72 h, 72 h incubation, CellTiter-Glo luminescence, read-out: HEK293
Procedure: HEK-293 cells were treated with compounds diluted in 0.2% DMSO, dilution was done according to the following protocol: (1) making 500× stock solution in DMSO from 5 mM by 4-fold dilution, total 8 doses were included; (2) making 2× solution in cell culture medium by transferring 0.5 ul 500× stock solution into 125 ul medium; (3) adding 50 ul of 2× solution to cells for incubation of 72 h.
25 μl of the CellTiter-Glo®Reagent [(Promega)—Cat No. G7572] was added to each well in the 96-well plate. The contents were mixed for 2 minutes on an orbital shaker to induce cell lysis. The plate was then allowed to incubate at room temperature for 10 minutes to stabilize luminescent signal. Luminescence was recorded on BMG PheraStar with luminescence protocol.
The inhibition percentage of the compound was calculated by the following equation: Inhibition percentage of Compound=100−100×(Signal-low control)/(High control-low control), wherein signal=each test compound group
High control=Cell group with added DMSO and without compound, indicating cells proliferation with no inhibition;
Imax is the maximum percentage of inhibition.
The IC50 value of a compound can be obtained by fitting the following equation
(§1) Wherein, X and Y are known values, and IC50, Hillslope, Top and Bottom are the parameters obtained by fitting with software. Y is the inhibition percentage (calculated from the equation), X is the concentration of the compound; IC50 is the concentration of the compound when the 50% inhibition is reached. The smaller the IC50 value is, the stronger the inhibitory ability of the compound is. Vice versa, the higher the IC50 value is, the weaker the ability the inhibitory ability of the compound is; Hillslope represents the slope of the fitted curve, generally around 1*; Bottom represents the minimum value of the curve obtained by data fitting, which is generally 0%±20%; Top represents the maximum value of the curve obtained by data fitting, which is generally 100%±20%. The experimental data were fitted by calculating and analyzing with Dotmatics data analysis software.

BTK = BTK (Homo sapiens, UniProt Q06187); assay: BTK cell degradation in TMD-8 cells, HTRF assay; assay type: cell-based; design: endogenous in cells; host or cells: TMD-8 cells; conditions: 6 h treatment, IC50 (DC50) of BTK degradation
BTK, sequence (Q06187 whole entry): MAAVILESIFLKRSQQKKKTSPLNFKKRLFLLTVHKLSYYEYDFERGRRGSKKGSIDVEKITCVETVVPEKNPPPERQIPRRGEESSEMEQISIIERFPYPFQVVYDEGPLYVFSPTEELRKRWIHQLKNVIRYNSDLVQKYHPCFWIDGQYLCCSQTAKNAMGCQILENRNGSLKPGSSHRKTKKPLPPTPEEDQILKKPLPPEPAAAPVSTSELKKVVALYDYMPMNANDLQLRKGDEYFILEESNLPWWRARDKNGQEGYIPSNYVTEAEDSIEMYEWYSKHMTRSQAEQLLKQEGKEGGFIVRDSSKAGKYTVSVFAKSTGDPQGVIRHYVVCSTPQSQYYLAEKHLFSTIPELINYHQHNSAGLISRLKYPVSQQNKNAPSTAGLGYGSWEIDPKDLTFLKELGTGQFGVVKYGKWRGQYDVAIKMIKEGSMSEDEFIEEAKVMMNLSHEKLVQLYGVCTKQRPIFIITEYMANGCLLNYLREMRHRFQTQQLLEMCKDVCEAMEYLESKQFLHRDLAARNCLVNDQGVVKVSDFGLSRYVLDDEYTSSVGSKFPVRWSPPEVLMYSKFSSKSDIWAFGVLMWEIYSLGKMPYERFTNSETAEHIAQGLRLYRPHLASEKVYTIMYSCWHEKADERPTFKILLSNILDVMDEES
Procedure: TMD-8 cells were treated with compounds diluted in 0.2% DMSO, dilution was done according to the following protocol: (1) making 500× stock solution in DMSO from 1 mM by 6-fold dilution, total 8 doses were included; (2) making 2× solution in cell culture medium by transferring 0.5 μl 500× stock solution into 125 μl medium; (3) adding 15 μl of 2× solution to cells for incubation of 6 h.
After 6 h treatment, 10 μl 14×lysis buffer was added to each well; the plate was sealed and incubated for 30 min at room temperature on a plate shaker; Once the cells was lysed, 16 μL of cell lysate were transferred to a PE 384-well HTRF detection plate; 4 μL of pre-mixed HTRF antibodies were added to each well; the plate was covered with a plate sealer, and then spinned at 1000 rpm for 1 min, then incubated overnight at room temperature; the results were read on BMG PheraStar with HTRF protocol (337 nm-665 nm-620 nm).
The inhibition (degradation) percentage of the compound was calculated by the following equation: Inhibition percentage of Compound=100−100×(Signal-low control)/(High control-low control), wherein signal=each test compound group
High control=Cell group with added DMSO and without compound, indicating microplate readings without BTK degradation;
Dmax is the maximum percentage of inhibition (degradation).
The IC50 (DC50) value of a compound can be obtained by fitting the following equation
Y=Bottom+(TOP−Bottom)/(1+((IC50/X)^hillslope))
as §1, with “wherein,” for “Wherein,”

Question: Which IC50 (HEK-293 cells) does the source give for `NC(=O)c1c(-c2ccc(C(=O)Nc3cccc(C(F)(F)F)n3)cc2)nn2c1Nc1ccc(N3CCN(CC4CCN(c5ccc(N6CCC(=O)NC6=O)cc5)CC4)CC3)cc1CC2` [Example B16, 7-(4-((1-(4-(2,4-dioxotetrahydropyrimidin-1(2H)-yl)phenyl)piperidin-4-yl)methyl)piperazin-1-yl)-2-(4-((6-(trifluoromethyl)pyridin-2-yl)carbamoyl)phenyl)-9,10-dihydro-4H-benzo[d]pyrazolo[1,5-a][1,3]diazepine-3-carboxamide] here?
Answer: Its IC50 is 232 nM.

Question: And the DC50 (BTK)?
Answer: The DC50 was 1.32 nM.

Question: Which results are given for `Cc1cccc(N(CC(=O)OC(C)(C)C)C(=O)c2ccc(-c3nn4c(c3C(N)=O)Nc3ccc(N5CCN(CC6CCN(c7ccc(N8CCC(=O)N(CC(=O)OC(C)(C)C)C8=O)cc7)CC6)CC5)cc3CC4)c(F)c2C)n1` [Example B77, tert-butyl 2-(3-(4-(4-((4-(2-(4-((2-(tert-butoxy)-2-oxoethyl)(6-methylpyridin-2-yl)carbamoyl)-2-fluoro-3-methylphenyl)-3-carbamoyl-9,10-dihydro-4H-benzo[d]pyrazolo[1,5-a][1,3]diazepin-7-yl)piperazin-1-yl)methyl)piperidin-1-yl)phenyl)-2,6-dioxotetrahydropyrimidin-1(2H)-yl)acetate]?
Answer: IC50 (HEK-293 cells): 38.3 nM; DC50 (BTK): > 2000 nM

Question: Which IC50 (HEK-293 cells) does the source give for `Cc1cccc(NC(=O)c2ncc(-c3nn4c(c3C(N)=O)Nc3ccc(N5CCN(CC6CCN(c7ccc(N8CCC(=O)NC8=O)cc7)CC6)CC5)cc3CC4)cc2C)n1` [Example B32, 7-(4-((1-(4-(2,4-dioxotetrahydropyrimidin-1(2H)-yl)phenyl)piperidin-4-yl)methyl)piperazin-1-yl)-2-(5-methyl-6-((6-methylpyridin-2-yl)carbamoyl)pyridin-3-yl)-9,10-dihydro-4H-benzo[d]pyrazolo[1,5-a][1,3]diazepine-3-carboxamide] here?
Answer: The IC50 was 332 nM.

Question: What about the DC50 (BTK) of the same compound?
Answer: The DC50 was 8.86 nM.

Question: How did the IC50 (HEK-293 cells) turn out when `CCc1cccc(NC(=O)c2ccc(-c3nn4c(c3C(N)=O)Nc3ccc(N5CCN(CC6CCN(c7ccc(N8CCC(=O)NC8=O)cc7)CC6)CC5)cc3CC4)c(F)c2C)n1` [Example B41, 7-(4-((1-(4-(2,4-dioxotetrahydropyrimidin-1(2H)-yl)phenyl)piperidin-4-yl)methyl)piperazin-1-yl)-2-(4-((6-ethylpyridin-2-yl)carbamoyl)-2-fluoro-3-methylphenyl)-9,10-dihydro-4H-benzo[d]pyrazolo[1,5-a][1,3]diazepine-3-carboxamide] was run?
Answer: The IC50 was greater than 10000 nM.

Question: And the DC50 (BTK)?
Answer: The DC50 was 9.26 nM.

Question: With `NC(=O)c1c(-c2ccc(Oc3ccccc3)cc2)nn2c1Nc1cc(C3CCN(CCCOc4ccc(NC5CCC(=O)NC5=O)cc4)CC3)ccc1CC2` (centres unmarked) [Example A32, 6-(1-(3-(4-((2,6-dioxopiperidin-3-yl)amino)phenoxy)propyl)piperidin-4-yl)-2-(4-phenoxyphenyl)-9,10-dihydro-4H-benzo[d]pyrazolo[1,5-a] [1,3]diazepine-3-carboxamide] as the compound, how does the IC50 (HEK-293 cells) read?
Answer: Its IC50 is 417 nM.

Question: What about the DC50 (BTK) of the same compound?
Answer: Its DC50 is 6.03 nM.

Question: What does the source list for `Cc1c(C(=O)Nc2cccc(-c3ccccc3)n2)ccc(-c2nn3c(c2C(N)=O)Nc2ccc(N4CCN(CC5CCN(c6ccc(N7CCC(=O)NC7=O)cc6)CC5)CC4)cc2CC3)c1F` [Example B48, 7-(4-((1-(4-(2,4-dioxotetrahydropyrimidin-1(2H)-yl)phenyl)piperidin-4-yl)methyl)piperazin-1-yl)-2-(2-fluoro-3-methyl-4-((6-phenylpyridin-2-yl)carbamoyl)phenyl)-9,10-dihydro-4H-benzo[d]pyrazolo[1,5-a][1,3]diazepine-3-carboxamide]?
Answer: IC50 (HEK-293 cells): > 10000 nM; DC50 (BTK): 4.2 nM

Question: Which results are given for `NC(=O)c1c(-c2ccc(Oc3ccccc3)cc2)nn2c1Nc1cc(OCCC3CCN(c4ccc(N5CCC(=O)NC5=O)cc4)CC3)ccc1CC2` [Example A25, 6-(2-(1-(4-(2,4-dioxotetrahydropyrimidin-1(2H)-yl)phenyl)piperidin-4-yl)ethoxy)-2-(4-phenoxyphenyl)-9,10-dihydro-4H-benzo[d]pyrazolo[1,5-a][1,3]diazepine-3-carboxamide]?
Answer: IC50 (HEK-293 cells): > 10000 nM; DC50 (BTK): 24.9 nM

Question: What does the source list for `NC(=O)c1c(-c2ccc(Oc3ccccc3)cc2)nn2c1Nc1ccc(N3CCN(c4ccc5c(c4)C(=O)N(C4CCC(=O)NC4=O)C5=O)CC3)cc1CC2` (centres unmarked) [Example A7, 7-(4-(2-(2,6-dioxopiperidin-3-yl)-1,3-dioxoisoindolin-5-yl)piperazin-1-yl)-2-(4-phenoxyphenyl)-9,10-dihydro-4H-benzo[d]pyrazolo[1,5-a][1,3]diazepine-3-carboxamide]?
Answer: IC50 (HEK-293 cells): 178 nM; DC50 (BTK): 2.51 nM

Question: How did the IC50 (HEK-293 cells) turn out when `COc1ccccc1C(=O)NCc1ccc(-c2nn3c(c2C(N)=O)Nc2ccc(N4CCN(CC5CCN(c6ccc(N7CCC(=O)NC7=O)cc6)CC5)CC4)cc2CC3)c(OC)c1` [Example C44, 7-(4-((1-(4-(2,4-dioxotetrahydropyrimidin-1(2H)-yl)phenyl)piperidin-4-yl)methyl)piperazin-1-yl)-2-(2-methoxy-4-((2-methoxybenzamido)methyl)phenyl)-9,10-dihydro-4H-benzo[d]pyrazolo[1,5-a][1,3]diazepine-3-carboxamide] was run?
Answer: The IC50 was 642 nM.

Question: What about the DC50 (BTK) of the same compound?
Answer: Its DC50 is 3.8 nM.

Question: Which IC50 (HEK-293 cells) does the source give for `Cc1cccc(NC(=O)c2ncc(-c3nn4c(c3C#N)Nc3ccc(N5CCN(CC6CCN(c7ccc(N8CCC(=O)NC8=O)cc7)CC6)CC5)cc3CC4)cc2C)n1` [Example B31, 5-(3-cyano-7-(4-((1-(4-(2,4-dioxotetrahydropyrimidin-1(2H)-yl)phenyl)piperidin-4-yl)methyl)piperazin-1-yl)-9,10-dihydro-4H-benzo[d]pyrazolo[1,5-a][1,3]diazepin-2-yl)-3-methyl-N-(6-methylpyridin-2-yl)picolinamide] here?
Answer: The IC50 was 133 nM.

Question: And the DC50 (BTK)?
Answer: Its DC50 is greater than 2000 nM.

Question: For `NC(=O)c1c(-c2ccc(Oc3ccccc3)cc2F)nn2c1Nc1ccc(N3CCN(CC4CCN(c5ccc(N6CCC(=O)NC6=O)cc5)CC4)CC3)cc1CC2` [Example A37, 7-(4-((1-(4-(2,4-dioxotetrahydropyrimidin-1(2H)-yl)phenyl)piperidin-4-yl)methyl)piperazin-1-yl)-2-(2-fluoro-4-phenoxyphenyl)-9,10-dihydro-4H-benzo[d]pyrazolo[1,5-a][1,3]diazepine-3-carboxamide], which IC50 (HEK-293 cells) is on record?
Answer: The IC50 was 70 nM.

Question: And the DC50 (BTK)?
Answer: The DC50 was 4.71 nM.

Question: For `NC(=O)c1c(-c2ccc(Oc3ccccc3)cc2)nn2c1Nc1cc(C3CCN(CC4CCN(c5ccc(NC6CCC(=O)NC6=O)cc5)CC4)CC3)ccc1CC2` (centres unmarked) [Example A35, 6-(1-((1-(4-((2,6-dioxopiperidin-3-yl)amino)phenyl)piperidin-4-yl)methyl)piperidin-4-yl)-2-(4-phenoxyphenyl)-9,10-dihydro-4H-benzo[d]pyrazolo[1,5-a][1,3]diazepine-3-carboxamide], which IC50 (HEK-293 cells) is on record?
Answer: Its IC50 is 241 nM.

Question: And the DC50 (BTK)?
Answer: The DC50 was 69.1 nM.

Question: Which IC50 (HEK-293 cells) does the source give for `Cc1cccc(NC(=O)c2ccc(-c3nn4c(c3C(N)=O)Nc3ccc(N5CCN(C(=O)Cc6cccc(N7CCC(=O)NC7=O)c6)CC5)cc3CC4)c(F)c2C)n1` [Example B75, 7-(4-(2-(3-(2,4-dioxotetrahydropyrimidin-1(2H)-yl)phenyl)acetyl)piperazin-1-yl)-2-(2-fluoro-3-methyl-4-((6-methylpyridin-2-yl)carbamoyl)phenyl)-9,10-dihydro-4H-benzo[d]pyrazolo[1,5-a][1,3]diazepine-3-carboxamide] here?
Answer: Its IC50 is greater than 10000 nM.

Question: And the DC50 (BTK)?
Answer: The DC50 was 30.1 nM.
